Measurements as given in paper PMC10178204, “Peptaibol Analogs Show Potent Antibacterial Activity against Multidrug Resistant Opportunistic Pathogens” (International Journal of Molecular Sciences, 2023).
Values after ≈ are worked out from the molar mass of the structure shown. Values joined by “and” are separate entries in the source; they are usually repeats but may differ in a detail not shown here. Identical values can stand only once. Non-standard residues stand in square brackets, D forms with d. Residues, ends and D or L forms follow the SMILES beside them. *: point of attachment. Octanoyl = CCCCCCCC(=O)*; Aib = CC(C)(N)C(=O)O

Legend:
[1] = tested on: Acinetobacter baumannii ATCC 17978; conditions: for MIC against A. baumannii, in molar units: corresponding to 2 and 8 μg/mL
Description: (§1) The antibacterial activity of the peptides was initially assessed on a panel of representative Gram-positive and Gram-negative organisms of high clinical relevance and commonly responsible for bacterial infections in both animals and humans. Bacillus subtilis ATCC 6633 (Bsu) was also included as a rod-shaped model Gram-positive organism. This first panel comprised: Enterococcus faecalis ATCC 29212 (Efa); Streptococcus pyogenes ATCC 12344 (Spy); and Staphylococcus aureus ATCC 25923 (Sau); Gram-negative: Escherichia coli CCUGT (Eco), Klebsiella pneumoniae ATCC 13833 (Kpn), Acinetobacter baumannii ATCC 17978 (Aba), and Pseudomonas aeruginosa ATCC 27853 (Pae) (Table 2). Both the minimum inhibitory concentration (MIC, Table 2) and the minimum bactericidal concentration (MBC, Table S1, Supporting Material) were determined.
(§2) The minimum inhibitory concentration (MIC) and the minimum bactericidal concentration (MBC) of the compounds were determined in triplicate using Mueller–Hinton broth (MHB). […] Therefore, we decided to dissolve all peptides in DMSO to a final concentration of 25 mg/mL, for consistency. The bacteria inoculum was 5 × 10^5 CFU/mL, as recommended by CLSI (Document M07-A10, 2015). […] Reference-type strains, including representatives of both Gram-positive bacteria (Bacillus subtilis ATCC 6633, Enterococcus faecalis ATCC 29212, Staphylococcus aureus ATCC 25923, the methicillin-resistant Staphylococcus aureus ATCC 43300 (MRSA), Streptococcus pyogenes ATCC 12344) and Gram-negative bacteria (Escherichia coli CCUGT, Klebsiella pneumoniae ATCC 13833, Pseudomonas aeruginosa ATCC 27853, and Acinetobacter baumannii ATCC 17978), were acquired from ATCC or CCUG culture collections. Other antibiotic-resistant clinical isolates were present in our collection at the University Teaching Hospital (Azienda Ospedaliero-Universitaria Senese ‘Santa Maria alle Scotte’) in Siena, Tuscany, Italy. Specifically, MDR carbapenem-hydrolyzing class D β-lactamase-producing Acinetobacter baumannii and metallo-β-lactamase-producing Pseudomonas aeruginosa were used in this study (Table 4).

[2] = tested on: Bacillus subtilis ATCC 6633; conditions: MHB, 5 × 10^5 CFU/mL, 18 h, 35 °C, triplicate
Description: as §1, §2

[3] = tested on: Enterococcus faecalis ATCC 29212; conditions: MHB, 5 × 10^5 CFU/mL, 18 h, 35 °C, triplicate
Description: as §1, §2

Escherichia coli CCUGT = conditions: MHB, 5 × 10^5 CFU/mL, 18 h, 35 °C, triplicate
Description: as §1, §2

[4] = tested on: Klebsiella pneumoniae ATCC 13833; conditions: MHB, 5 × 10^5 CFU/mL, 18 h, 35 °C, triplicate
Description: as §1, §2

[5] = tested on: Pseudomonas aeruginosa ATCC 27853; conditions: MHB, 5 × 10^5 CFU/mL, 18 h, 35 °C, triplicate
Description: as §1, §2

[6] = tested on: Staphylococcus aureus ATCC 25923; conditions: MHB, 5 × 10^5 CFU/mL, 18 h, 35 °C, triplicate
Description: as §1, §2

[7] = tested on: Streptococcus pyogenes ATCC 12344; conditions: MHB, 5 × 10^5 CFU/mL, 18 h, 35 °C, triplicate
Description: as §1, §2

[8] = tested on: A. baumannii SI-12 (OXA-23); conditions: MHB, 5 × 10^5 CFU/mL, 18 h, 35 °C, triplicate
Experimental: as §2

[9] = tested on: A. baumannii SI-310 (OXA-24); conditions: colistin-resistant isolate; MHB, 5 × 10^5 CFU/mL, 18 h, 35 °C, triplicate
Experimental: as §2

[10] = tested on: A. baumannii SI-648 (OXA-23, OXA-51-like); conditions: MHB, 5 × 10^5 CFU/mL, 18 h, 35 °C, triplicate
Experimental: as §2

[11] = tested on: P. aeruginosa 101/1477 (IMP-1); conditions: MHB, 5 × 10^5 CFU/mL, 18 h, 35 °C, triplicate
Experimental: as §2

[12] = tested on: P. aeruginosa 506/99 (VIM-2); conditions: MHB, 5 × 10^5 CFU/mL, 18 h, 35 °C, triplicate
Experimental: as §2

[13] = tested on: P. aeruginosa VA-182/00 (VIM-2); conditions: MHB, 5 × 10^5 CFU/mL, 18 h, 35 °C, triplicate
Experimental: as §2

[14] = tested on: P. aeruginosa VR-143/97 (VIM-1); conditions: MHB, 5 × 10^5 CFU/mL, 18 h, 35 °C, triplicate
Experimental: as §2

[15] = tested on: S. aureus ATCC 43300 (MRSA); conditions: MHB, 5 × 10^5 CFU/mL, 18 h, 35 °C, triplicate
Experimental: as §2

[16] = tested on: blood agar plate (Columbia CNA Agar); assay: Hemolysis on blood agar plate; conditions: 35 ± 2 °C, 24 h; for Hemolysis (class): 50 μg peptide (2 μL of 25 mg/mL in DMSO) spotted on blood agar, visual, triplicate
Experimental: Hemolysis zones were visually determined and measured. […] For two additional peptides (6 and 15), only a small hemolysis zone (diameter 4–5 mm) was visible, as compared to that of the positive control (Triton X-100, 13 mm).
Briefly, 2 μL of each peptide solution in DMSO (25 mg/mL), corresponding to 50 μg, was spotted on the surface of a blood agar plate (Columbia CNA Agar, Becton Dickinson Italia S.p.A., Florence, Italy). The plate was then incubated at 35 ± 2 °C for 24 h and visually inspected for the presence of hemolysis zones (see Figure S13, Supplementary Material). The experiment was performed in triplicate. Table 2 reports the average value of the diameter of hemolysis zones measured in each individual experiment. Triton X-100 was used as a positive control (diameter of the hemolysis zone: 13 mm), while DMSO was used as a negative control.
Figure S13. Implementation of the hemolysis test as described in Bechlars et al.. After spotting
2 µL (50 µg) of each compound at a random location on the blood agar plate and incubation at 35 ±
2 °C for 24 h, the plates were manually inspected for the presence of hemolysis zones. Triton X-100
and DMSO were used as the positive and negative controls, respectively. Results were interpreted
(1 picture or pasted object on this page, not shown here)

[17] = tested on: reference Gram-positive and Gram-negative strains; conditions: lowest value over the eight reference strains
Description: as §1, §2

[18] = MHB, 5 × 10^5 CFU/mL, 18 h, 35 °C, triplicate

| Compound | MBC Aba [1, 18] [µg/mL] | MIC against A. baumannii, in molar units [1] [µM] | MBC Bsu [2] [µg/mL] | MIC Bsu [2] [µg/mL] | MBC Efa [3] [µg/mL] | MIC Efa [3] [µg/mL] | MBC Eco (Escherichia coli CCUGT) [µg/mL] | MIC Eco (Escherichia coli CCUGT) [µg/mL] | MIC Kpn [4] [µg/mL] | MIC Sau [6] [µg/mL] | MBC Spy [7] [µg/mL] | MIC Spy [7] [µg/mL] | MBC A. baumannii SI-12 (OXA-23) [8] [µg/mL] | MIC A. baumannii SI-12 (OXA-23) [8] | MBC A. baumannii SI-310 (OXA-24) [9] [µg/mL] | MIC A. baumannii SI-310 (OXA-24) [9] | MBC A. baumannii SI-648 (OXA-23, OXA-51-like) [10] [µg/mL] | MIC A. baumannii SI-648 (OXA-23, OXA-51-like) [10] | MIC P. aeruginosa 101/1477 (IMP-1) [11] [µg/mL] | MIC P. aeruginosa 506/99 (VIM-2) [12] [µg/mL] | also measured |
| --- | --- | --- | --- | --- | --- | --- | --- | --- | --- | --- | --- | --- | --- | --- | --- | --- | --- | --- | --- | --- | --- |
| CCCCCCCC(=O)NC(C)(C)C(=O)NCC(=O)N[C@@H](CC(C)C)C(=O)NC(C)(C)C(=O)NCC(=O)N[C@@H](CCCCN)C(=O)N[C@@H](CC(C)C)C(=O)NC(C)(C)C(=O)NCC(=O)N[C@H](C(=O)N[C@H](CO)CC(C)C)[C@@H](C)CC [Peptide 10, 1-Oct-Aib-Gly-Leu-Aib-Gly-Lys-Leu-Aib-Gly-Ile-Lol] | > 128 | 1.8 to 7.2 | 16 (≈ 14.1 µM) | 4 (≈ 3.52 µM) | 16 (≈ 14.1 µM) | 4 (≈ 3.52 µM) | 128 (≈ 113 µM) | 64 (≈ 56.3 µM) | 16 (≈ 14.1 µM) | 8 (≈ 7.03 µM) | 16 (≈ 14.1 µM) | 4 (≈ 3.52 µM) | 32 (≈ 28.1 µM) | 32 μg/mL and 32/32 μg/mL | 16 (≈ 14.1 µM) | 16 μg/mL and 16/16 μg/mL | 16 (≈ 14.1 µM) | 16 μg/mL and 16/16 μg/mL | > 128 | > 128 | MBC Kpn [4]: 64 µg/mL (≈ 56.3 µM); MBC Pae [5]: 128 µg/mL (≈ 113 µM); MBC Sau [6]: 16 µg/mL (≈ 14.1 µM); MIC P. aeruginosa VA-182/00 (VIM-2) [13]: > 128 µg/mL; MIC P. aeruginosa VR-143/97 (VIM-1) [14]: > 128 µg/mL; MBC S. aureus ATCC 43300 (MRSA) [15]: 8 µg/mL (≈ 7.03 µM); MIC S. aureus ATCC 43300 (MRSA) [15]: 4 µg/mL (≈ 3.52 µM); Hemolysis (class) [16]: +; Hemolysis (d, diameter of hemolysis zone) ([16]; 50 μg spotted on blood agar, average of triplicate): 11 mm |
| CCCCCCCC(=O)NC(C)(C)C(=O)N[C@@H](CCCCN)C(=O)N[C@@H](CC(C)C)C(=O)NC(C)(C)C(=O)N[C@@H](CCCCN)C(=O)N[C@@H](CCCCN)C(=O)N[C@@H](CC(C)C)C(=O)NC(C)(C)C(=O)NCC(=O)N[C@H](C(=O)N[C@@H](CC(C)C)C(N)=O)[C@@H](C)CC [Peptide 11, 1-Oct-Aib-Lys-Leu-Aib-Lys-Lys-Leu-Aib-Gly-Ile-Leu-NH2] (Octanoyl-[Aib]KL[Aib]KKL[Aib]GIL-NH2) | 2 (≈ 1.55 µM) | 1.8 to 7.2 | 16 (≈ 12.4 µM) | 2 (≈ 1.55 µM) | 32 (≈ 24.8 µM) | 4 (≈ 3.09 µM) | 128 (≈ 99 µM) | 16 (≈ 12.4 µM) | > 128 | 16 (≈ 12.4 µM) | 16 (≈ 12.4 µM) | 4 (≈ 3.09 µM) | 32 (≈ 24.8 µM) | 32 μg/mL and 32/32 μg/mL | 4 (≈ 3.09 µM) | 2 µg/mL (≈ 1.55 µM) | 4 (≈ 3.09 µM) | 2 µg/mL (≈ 1.55 µM) | 8 (≈ 6.19 µM) | 8 (≈ 6.19 µM) | MIC Aba [1, 18]: 2 µg/mL (≈ 1.55 µM); lowest MIC [17]: 2 µg/mL; MBC P. aeruginosa 101/1477 (IMP-1) [11]: 8 µg/mL (≈ 6.19 µM); MBC P. aeruginosa 506/99 (VIM-2) [12]: 16 µg/mL (≈ 12.4 µM); MBC P. aeruginosa VA-182/00 (VIM-2) [13]: 32 µg/mL (≈ 24.8 µM); MIC P. aeruginosa VA-182/00 (VIM-2) [13]: 8 µg/mL (≈ 6.19 µM); MBC P. aeruginosa VR-143/97 (VIM-1) [14]: 8 µg/mL (≈ 6.19 µM); MIC P. aeruginosa VR-143/97 (VIM-1) [14]: 8 µg/mL (≈ 6.19 µM); MBC S. aureus ATCC 43300 (MRSA) [15]: 2 µg/mL (≈ 1.55 µM); MIC S. aureus ATCC 43300 (MRSA) [15]: 2 µg/mL (≈ 1.55 µM); Hemolysis (class) [16]: - |
